The target in the test is T1, SIRT1 (Homo sapiens, UniProt Q96EB6).
T1 sequence (Q96EB6 1-747): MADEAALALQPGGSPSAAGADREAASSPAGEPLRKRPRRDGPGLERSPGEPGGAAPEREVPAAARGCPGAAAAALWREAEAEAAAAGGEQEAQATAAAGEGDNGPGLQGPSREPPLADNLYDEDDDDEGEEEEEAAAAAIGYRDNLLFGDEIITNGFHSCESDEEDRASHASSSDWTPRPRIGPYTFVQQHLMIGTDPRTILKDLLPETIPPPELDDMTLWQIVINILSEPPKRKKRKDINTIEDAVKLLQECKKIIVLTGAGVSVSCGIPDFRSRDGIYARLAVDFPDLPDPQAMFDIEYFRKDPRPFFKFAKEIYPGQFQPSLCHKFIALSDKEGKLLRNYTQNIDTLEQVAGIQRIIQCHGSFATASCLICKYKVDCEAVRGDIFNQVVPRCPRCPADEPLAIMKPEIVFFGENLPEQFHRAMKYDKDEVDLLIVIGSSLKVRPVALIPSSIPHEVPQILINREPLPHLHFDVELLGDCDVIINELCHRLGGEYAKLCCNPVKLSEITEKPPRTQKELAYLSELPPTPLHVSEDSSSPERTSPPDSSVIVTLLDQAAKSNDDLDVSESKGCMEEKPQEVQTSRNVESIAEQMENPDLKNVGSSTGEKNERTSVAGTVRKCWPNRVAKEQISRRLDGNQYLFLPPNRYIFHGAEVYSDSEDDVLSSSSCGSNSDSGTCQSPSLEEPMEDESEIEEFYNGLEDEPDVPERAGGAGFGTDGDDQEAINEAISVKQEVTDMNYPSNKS
As to the kind of experiment: TAMRA based mass spectrometry assay of SIRT1 activity. The class given is biochemical. Particulars: TAMRA peptide substrate; for TAMRA EC1.5: concentration giving 150% activation of SIRT1; for Emax: percent maximum fold activation, read-out: TAMRA % Fold Act. The procedure, abridged:
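Recombinant N-terminal His-tagged human SIRT1 (10 nM, E. coli) incubated 25 min at 25 °C with 0.5 μM 5TMR-labelled p53-derived acetyl-peptide and 120 μM βNAD+ in Tris-acetate pH 8 buffer with DTT and 0.05% BSA, compound at varying concentrations. Stopped with formic acid; deacetylated peptide or OAADPR measured by mass spectrometry relative to DMSO controls.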

For `Cc1cc(NC(=O)c2c(C)nc3c(C)cc(-c4ccccc4C(F)(F)F)nn23)cc(C)n1` [Compound 432], the “TAMRA EC1.5” value is listed as “A (EC1.5<1 μM)” and the Emax is ≥ 350%.
`Cc1cc2ncc(NC(=O)c3cscn3)n2nc1-c1ccccc1C(F)(F)F` [Compound 434]: the “TAMRA EC1.5” value is listed as “A (EC1.5<1 μM)” and the Emax was ≥ 350%.
`Cc1cc2ncc(NC(=O)c3cccc(N4CCOCC4)n3)n2nc1-c1ccccc1C(F)(F)F` [Compound 435]: the “TAMRA EC1.5” value is reported as “A (EC1.5<1 μM)” and the Emax is ≥ 350%.
Taken in the same sequence, the figures for `O=C(Nc1cnc2ccc(-c3ccccc3C(F)(F)F)nn12)c1cccc(-n2cnnc2)n1` [Compound 438] were “A (EC1.5<1 μM)” and ≥ 350%.
Taken in the same sequence, the figures for `O=C(Nc1cnc2ccc(-c3ccccc3C(F)(F)F)nn12)c1ncc(F)cc1F` [Compound 440] were “A (EC1.5<1 μM)” and ≥ 350%.
For the compound `Cc1cc2ncc(NC(=O)c3ccccn3)n2nc1-c1ccccc1C(F)(F)F` [Compound 441, N-(7-methyl-6-(2-(trifluoromethyl)phenyl)imidazo[1,2-b]pyridazin-3-yl)picolinamide], the “TAMRA EC1.5” value is listed as “A (EC1.5<1 μM)” and the Emax is ≥ 350%.
Taken in the same sequence, the figures for `Cc1cc2ncc(NC(=O)c3ncccn3)n2nc1-c1ccccc1C(F)(F)F` [Compound 444] were “A (EC1.5<1 μM)” and ≥ 350%.
On to `Cc1cc2ncc(NC(=O)c3nccs3)n2nc1-c1ccccc1C(F)(F)F` [Compound 446], for which the “TAMRA EC1.5” value is recorded as “A (EC1.5<1 μM)” and the Emax is ≥ 350%.
Take `Cc1cnc(C(=O)Nc2cnc3cc(C)c(-c4ccccc4C(F)(F)F)nn23)s1` [Compound 447]: the “TAMRA EC1.5” value is on record as “A (EC1.5<1 μM)” and the Emax is ≥ 350%.
Taken in the same sequence, the figures for `O=C(Nc1ccccn1)c1ncn2ccc(-c3ccccc3C(F)(F)F)nc12` [Compound 450] were “B (EC1.5 1-25 μM)” and ≥ 350%.
Taken in the same sequence, the figures for `O=C(Nc1ccncn1)c1ncn2ccc(-c3ccccc3C(F)(F)F)nc12` [Compound 452] were “A (EC1.5<1 μM)” and ≥ 350%.
Taken in the same sequence, the figures for `O=C(Nc1ncccn1)c1ncn2ccc(-c3ccccc3C(F)(F)F)nc12` [Compound 453] were “B (EC1.5 1-25 μM)” and ≥ 350%.
`O=C(Nc1ncn2ccc(-c3ccccc3C(F)(F)F)nc12)c1cccc(N2CCOCC2)n1` [Compound 456]: the “TAMRA EC1.5” value was “A (EC1.5<1 μM)” and the Emax is ≥ 350%.
Taken in the same sequence, the figures for `Cc1cccc(NC(=O)c2c(C)nc3c(C)cc(-c4ccccc4C(F)(F)F)nn23)n1` [Compound 458] were “A (EC1.5<1 μM)” and ≥ 350%.
Taken in the same sequence, the figures for `Cc1cc(NC(=O)c2c(C)nc3c(C)cc(-c4ccccc4C(F)(F)F)nn23)ccn1` [Compound 459] were “A (EC1.5<1 μM)” and ≥ 350%.
Taken in the same sequence, the figures for `Cc1nc2ccc(-c3ccccc3C(F)(F)F)nn2c1C(=O)Nc1cccnn1` [Compound 462, 2-methyl-N-(pyridazin-3-yl)-6-(2-(trifluoromethyl)phenyl)imidazo[1,2-b]pyridazine-3-carboxamide] were “A (EC1.5<1 μM)” and ≥ 350%.
In the case of `Cc1nc2ccc(-c3ccccc3C(F)(F)F)nn2c1C(=O)Nc1ccncc1F` [Compound 464], the “TAMRA EC1.5” value is “A (EC1.5<1 μM)” and the Emax is ≥ 350%.
Taken in the same sequence, the figures for `Cc1nc2ccc(-c3ccccc3C(F)(F)F)nn2c1C(=O)Nc1ccc(F)cn1` [Compound 465] were “A (EC1.5<1 μM)” and ≥ 350%.
`Cc1nc2c(C)cc(-c3ccccc3C(F)(F)F)nn2c1C(=O)Nc1cncc(OC[C@H](O)CO)n1` [Compound 468]: the “TAMRA EC1.5” value is “A (EC1.5<1 μM)” and the Emax is ≥ 350%.
Taken in the same sequence, the figures for `Cc1nc2ccc(-c3ccccc3OC(F)(F)F)nn2c1C(=O)Nc1cccnn1` [Compound 470] were “A (EC1.5<1 μM)” and ≥ 350%.
Taken in the same sequence, the figures for `Cc1nc2ccc(-c3ccccc3OC(F)(F)F)nn2c1C(=O)Nc1cnccn1` [Compound 471] were “A (EC1.5<1 μM)” and ≥ 350%.
Taken in the same sequence, the figures for `Cc1nc2c(C)cc(-c3ccccc3C(F)(F)F)nn2c1C(=O)Nc1ccc(F)cn1` [Compound 474] were “A (EC1.5<1 μM)” and ≥ 350%.
For the compound `COc1nccc(NC(=O)c2c(C)nc3ccc(-c4ccccc4C(F)(F)F)nn23)n1` [Compound 476], the “TAMRA EC1.5” value is given as “A (EC1.5<1 μM)” and the Emax is ≥ 350%.
Taken in the same sequence, the figures for `COc1nccc(NC(=O)c2c(C)nc3ccc(-c4ccccc4OC(F)(F)F)nn23)n1` [Compound 477] were “A (EC1.5<1 μM)” and ≥ 350%.
Taken in the same sequence, the figures for `Cc1nc2c(C)cc(-c3ccccc3OC(F)(F)F)nn2c1C(=O)Nc1cccnn1` [Compound 479] were “A (EC1.5<1 μM)” and ≥ 350%.
Taken in the same sequence, the figures for `Cc1nc(NC(=O)c2c(C)nc3c(C)cc(-c4ccccc4OC(F)(F)F)nn23)sc1C` [Compound 482] were “A (EC1.5<1 μM)” and ≥ 350%.
With `O=C(Nc1cccc(N2CCOCC2)n1)c1cnc2ccc(N3CC[C@@H](F)C3)nn12` [Compound 488], the “TAMRA EC1.5” value is on record as “B (EC1.5 1-25 μM)” and the Emax was ≥ 350%.
Taken in the same sequence, the figures for `Cc1cc(C)nc(NC(=O)c2cnc3ccc(N4CC[C@@H](F)C4)nn23)c1` [Compound 491] were “B (EC1.5 1-25 μM)” and < 350%.
Taken in the same sequence, the figures for `Cc1cc(C)nc(NC(=O)c2cnc3ccc(N4CCC(F)(F)C4)nn23)c1` [Compound 492] were “B (EC1.5 1-25 μM)” and < 350%.
With `Cc1cc(C)nc(NC(=O)c2c(C)nc3c(C)cc(-c4ccccc4OC(F)(F)F)nn23)c1` [Compound 493], the “TAMRA EC1.5” value is on record as “A (EC1.5<1 μM)” and the Emax is ≥ 350%.
Taken in the same sequence, the figures for `Cc1nc2c(C)cc(-c3ccccc3OC(F)(F)F)nn2c1C(=O)Nc1ccncc1F` [Compound 494] were “A (EC1.5<1 μM)” and ≥ 350%.
Taken in the same sequence, the figures for `Cc1nc2c(C)cc(-c3ccccc3OC(F)(F)F)nn2c1C(=O)Nc1ccc(F)cn1` [Compound 495] were “A (EC1.5<1 μM)” and < 350%.
As for `Cc1nc2ccc(-c3ccccc3OC(F)(F)F)nn2c1C(=O)Nc1ccncc1` [Compound 497], the “TAMRA EC1.5” value was “A (EC1.5<1 μM)” and the Emax is ≥ 350%.
Turning to `Cc1nc2ccc(-c3ccccc3C(F)(F)F)nn2c1C(=O)Nc1ccccn1` [Compound 498], the “TAMRA EC1.5” value was “A (EC1.5<1 μM)” and the Emax was ≥ 350%.
As for `Cc1cccc(NC(=O)c2cnn3ccc(-c4ccccc4C(F)(F)F)nc23)n1` [Compound 500], the “TAMRA EC1.5” value is on record as “A (EC1.5<1 μM)” and the Emax is ≥ 350%.
Taken in the same sequence, the figures for `Cc1ccnc(NC(=O)c2cnn3ccc(-c4ccccc4C(F)(F)F)nc23)c1` [Compound 501] were “A (EC1.5<1 μM)” and ≥ 350%.
For the compound `Cc1cc(C)nc(NC(=O)c2cnn3ccc(-c4ccccc4C(F)(F)F)nc23)c1` [Compound 502], the “TAMRA EC1.5” value was “A (EC1.5<1 μM)” and the Emax was ≥ 350%.
Taken in the same sequence, the figures for `Cc1cc(NC(=O)c2cnn3ccc(-c4ccccc4C(F)(F)F)nc23)nc(C)n1` [Compound 503] were “A (EC1.5<1 μM)” and ≥ 350%.
Taken in the same sequence, the figures for `Cc1cc(NC(=O)c2cnn3ccc(-c4ccccc4C(F)(F)F)nc23)cc(C)n1` [Compound 504] were “A (EC1.5<1 μM)” and ≥ 350%.
Taken in the same sequence, the figures for `O=C(Nc1nccs1)c1cnn2ccc(-c3ccccc3C(F)(F)F)nc12` [Compound 506] were “A (EC1.5<1 μM)” and ≥ 350%.
`Cc1nc(NC(=O)c2cnn3ccc(-c4ccccc4C(F)(F)F)nc23)sc1C` [Compound 509]: the “TAMRA EC1.5” value is recorded as “A (EC1.5<1 μM)” and the Emax was ≥ 350%.
Taken in the same sequence, the figures for `CN(C)[C@H]1CCN(c2ccc3ncc(C(=O)Nc4cccc(N5CCOCC5)n4)n3n2)C1` [Compound 510] were “B (EC1.5 1-25 μM)” and < 350%.
Taken in the same sequence, the figures for `Cc1cc(C)nc(NC(=O)c2cnc3ccc(N4CC[C@H](N(C)C)C4)nn23)c1` [Compound 512] were “B (EC1.5 1-25 μM)” and < 350%.
On to `Cc1cc(-c2ccccc2C(F)(F)F)nn2c(C(=O)Nc3ccncn3)cnc12` [Compound 515], for which the “TAMRA EC1.5” value is listed as “A (EC1.5<1 μM)” and the Emax was ≥ 350%.

Values taken from patent US9957271B2, “Substituted bicyclic aza-heterocycles and analogues as sirtuin modulators” (GlaxoSmithKline, LLC, priority 2012, dated 2018).
